Reference: US10610563B2, “Use of ubiquitin-proteasome system inhibitors for treatment of tumors associated with neurofibromatosis type-2” (BIOXCEL CORPORATION, priority 2014, dated 2020)
Each block holds one compound with its values, some of them ahead of it.

Key:
Caspase 3/7 [1] = test: Caspase 3/7 activity (Caspase-Glo 3/7) in control haploid cells; settings: 18 hrs
Caspase 3/7 [2] = test: Caspase 3/7 activity (Caspase-Glo 3/7) in NF2 knockout cell line; settings: 18 hrs
20S proteasome [3] = biological target: T1, 20S proteasome (Homo sapiens, UniProt P28074); test: 20S proteasome activity (chymotrypsin-like, Suc-LLVY-AMC) in NF2 knockout cells; format: cell-based
Experimental: (§1) The cells were then washed in PBS (Phosphate buffered saline) and lysed in a buffer containing non-ionic detergent and ATP. The cell lysate was centrifuged at 15,000 g for 30 minutes at 4° C. The supernatant was collected, aliquoted and stored at −80° C. until assay. Chymotrypsin-like peptidase activity of 20S proteasome was measured by using 40 μM Succinyl-Leu-Leu-Val-Tyr-AMC (Boston Biochem: S-280), a fluorogenic peptide substrate, along with 12 nM of recombinant PA28α (Boston Biochem: E-381 or R&D Systems Cat. # E-381-100), in an assay buffer containing 20 mM HEPES pH 7.4 and 0.5 mM EDTA. 20S proteasome cleaved the peptide substrate to release the free fluorophore AMC. […] The compound carfilzomib was used as an internal control for the assay (NF2 cells treated with carfilzomib). Similar assay was also performed with the wild type haploid (HAP1) cells for 18 hrs at different bortezomib concentrations ranging from 1 nM to 300 nM (i.e. 1 nM, 3 nM, 10 nM, 30 nM, 100 nM and 300 nM). The reaction was monitored by measuring the fluorescence through Flex Station 3 (Molecular Devices) or Envision (PerkinElmer) (excitation/emission: 353/442 nm), for 1 hour a 37° C. under kinetic setting. Substrate turnover was estimated as a standard curve generated using standard AMC. The results of 20S proteasome assay are described in FIGS. 1, 2, 3, 4 & 5.

20S proteasome [4] = biological target: T1, 20S proteasome; test: 20S proteasome activity (chymotrypsin-like, Suc-LLVY-AMC) in wild type haploid (HAP1) cells; format: cell-based; settings: concentration dependent manner; 18 hrs
Experimental: as §1

LATS1 = test: Western blot analysis for LATS1 protein in NF2 knockout cell line; format: cell-based; settings: 3, 10 & 30 nM at 18 hrs; compared to cells not treated
Experimental: Cells from NF2 knockout cell line 1293-1 cells control Haploid cell line (control wild type cells) are seeded in 6 well plates. […] LATS1 protein was assayed by Western blot (Chemiluminescence) method and both NF2 cell lines are used in the analysis. […] Cell lysates were analysed by western blotting and LATS1 was detected using anti-lats1 antibody (Abcam, ab70561); GAPDH protein levels were assayed using anti-GAPDH antibody as endogenous control. The objective was to quantify the up-regulation/down-regulation of proteins (LATS1) involved in Hippo signaling pathway in NF2 knockout cell line compared to the control cell line. Another objective is to observe the effect of bortezomib treatment in the NF2 knockout cell line, following assays using the Western Blot/WES System.

mesothelioma = test: Treatment of mesothelioma patients carrying mutations in NF2 or BAP1 genes; format: in vivo; settings: mesothelioma patients with NF2 or BAP1 mutation; 1.3 mg/m^2 intravenous bolus twice in a week, 21-d cycle, up to eight cycles
Excerpt: Mesothelioma patients can be screened for mutation(s) in any of these genes by molecular genetic testing, which is done by the mutation scanning and gene duplication/deletion testing. For example, mutation scanning is done by polymerase chain reaction amplification of the DNA of patients compared to control DNA, and DNA with altered DNA segments may be subjected to the further testing, such as sequence analysis to identify the sequence alterations. Gene duplication/deletion testing is done by quantitative polymerase chain reaction, long-range polymerase chain reaction, multiplex ligation-dependent probe amplification (MLPA), and chromosomal microarray (CMA) that includes the gene/chromosome segment for detection. Molecular genetic testing confirms about the mutation in the NF2 gene or that in the BAP1 gene. […] Bortezomib at a dose of 1.3 mg/m^2 via intravenous bolus for 3 to 5 seconds is given to patients, twice in a week for at least 2 weeks (days 1, 4, 8 and 11) of a 21-d cycle for up to eight cycles.

in vitro = settings: human, wild type haploid (HAP1) cells
[5] = system: NF2 knockout cell line 1293-1; test: Cell proliferation/cytotoxicity assay (MTS / CellTitre Blue) in NF2 knockout cell line
[6] = system: wild type haploid (HAP1) cells; test: Cell proliferation/cytotoxicity assay (MTS / CellTitre Blue) in control HAP1 cell line
[7] = 0.1 nM to 100 nM, 6 hrs and 12 hrs

SMILES: CN[C@@H]1C[C@H]2O[C@@](C)([C@@H]1OC)n1c3ccccc3c3c4c(c5c6ccccc6n2c5c31)C(=O)NC4 [Staurosporine]
apoptosis in the Caspase 3/7 assay, positive reference control, wild type haploid cell line (Caspase 3/7 [1]; Staurosporine 1 & 10 μM): induced apoptosis was also observed
apoptosis in the Caspase 3/7 assay, positive reference control, NF2 knockout cell line (Caspase 3/7 [2]; Staurosporine 1 & 10 μM): induced apoptosis was also observed

proteasome activity in the NF2 knockout cell line (20S proteasome [3]; from 3 nM onwards, post 6 hrs, 12 hrs, 18 hrs and 24 hrs incubation): decreased significantly
proteasome activity in the wild type haploid cell line (20S proteasome [4]): showed inhibition in proteasome activity
SMILES: CC(C)C[C@H](NC(=O)[C@H](Cc1ccccc1)NC(=O)c1cnccn1)B(O)O [bortezomib, [(1R)-3-methyl-1-({(2S)-3-phenyl-2[(pyrazin-2-ylcarbonyl)amino]propanoyl}amino)butyl]boronic acid]
proteasome activity in the NF2 knockout cell line (dose dependence) (20S proteasome [3]; 1 nM to 300 nM): dose dependent decrease in proteasome activity
comparison of % inhibition in proteasome activity, NF2 knockout cells vs wild type haploid cells (20S proteasome [3]; post 18 hrs incubation (FIG. 5)): greater inhibition in the NF2 knockout cells
levels of LATS1 protein in NF2 knockout cell line (Western blot) (LATS1): increased levels of LATS1
delay in tumor progression (mesothelioma): 50%
reduction in tumor size (mesothelioma): 25%
cytotoxicity at 6 h, 0.1 nM (in vitro): 2.64%
cytotoxicity at 6 h, 0.3 nM (in vitro): 4.7%
cytotoxicity at 6 h, 1 nM (in vitro): 5.65%
cytotoxicity at 6 h, 3 nM (in vitro): 1.58%
cytotoxicity at 6 h, 10 nM (in vitro): 0.99%
cytotoxicity at 6 h, 30 nM (in vitro): 7.63%
cytotoxicity at 6 h, 60 nM (in vitro): 9.63%
cytotoxicity at 6 h, 100 nM (in vitro): 6.08%
cytotoxicity at 12 h, 0.1 nM (in vitro): 3.91%
cytotoxicity at 12 h, 0.3 nM (in vitro): 2.62%
cytotoxicity at 12 h, 1 nM (in vitro): 0.2%
cytotoxicity at 12 h, 3 nM (in vitro): 1.1%
cytotoxicity at 12 h, 10 nM (in vitro): 5.12%
cytotoxicity at 12 h, 30 nM (in vitro): 24.9%
cytotoxicity at 12 h, 60 nM (in vitro): 31.9%
cytotoxicity at 12 h, 100 nM (in vitro): 26.9%
cytotoxicity at 18 h, 0.1 nM (in vitro): 6.83%
cytotoxicity at 18 h, 0.3 nM (in vitro): 6.9%
cytotoxicity at 18 h, 1 nM (in vitro): 5.78%
cytotoxicity at 18 h, 3 nM (in vitro): 7.83%
cytotoxicity at 18 h, 10 nM (in vitro): 7.56%
cytotoxicity at 18 h, 30 nM (in vitro): 26.3%
cytotoxicity at 18 h, 60 nM (in vitro): 31%
cytotoxicity at 18 h, 100 nM (in vitro): 32.7%
cytotoxicity at 24 h, 0.1 nM (in vitro): 11.2%
cytotoxicity at 24 h, 0.3 nM (in vitro): 11.4%
cytotoxicity at 24 h, 1 nM (in vitro): 10.9%
cytotoxicity at 24 h, 3 nM (in vitro): 16.6%
cytotoxicity at 24 h, 10 nM (in vitro): 44.8%
cytotoxicity at 24 h, 30 nM (in vitro): 75%
cytotoxicity at 24 h, 60 nM (in vitro): 77.4%
cytotoxicity at 24 h, 100 nM (in vitro): 78.9%
apoptosis/Caspase 3/7 activation in the control haploid cells (Caspase 3/7 [1]; 3 nM onwards, compared to NF2 knockout cell line): minimal increase in apoptosis/Caspase 3/7 activation
caspase activity (apoptosis) in the NF2 knockout cell line (Caspase 3/7 [2]; 3 nM onwards): significant increase in the caspase activity
cytotoxicity in the NF2 knockout cell line [5, 7]: 10-15%
cytotoxicity in the NF2 knockout cell line (in words) [5, 7]: do not show any significant cytotoxicity
Average % Cytotoxicity in the NF2 knockout cells ([5]; bortezomib 0.1 nM, 6 hrs): −5.18%
Average % Cytotoxicity in the NF2 knockout cells ([5]; bortezomib 0.1 nM, 12 hrs): −21.57%
Average % Cytotoxicity in the NF2 knockout cells ([5]; bortezomib 0.1 nM, 18 hrs): −16.92%
Average % Cytotoxicity in the NF2 knockout cells ([5]; bortezomib 0.1 nM, 24 hrs): −63.43%
Average % Cytotoxicity in the NF2 knockout cells ([5]; bortezomib 0.3 nM, 6 hrs): −5.03%
Average % Cytotoxicity in the NF2 knockout cells ([5]; bortezomib 0.3 nM, 12 hrs): −32.20%
Average % Cytotoxicity in the NF2 knockout cells ([5]; bortezomib 0.3 nM, 18 hrs): −26.59%
Average % Cytotoxicity in the NF2 knockout cells ([5]; bortezomib 0.3 nM, 24 hrs): −71.10%
Average % Cytotoxicity in the NF2 knockout cells ([5]; bortezomib 1 nM, 6 hrs): −1.49%
Average % Cytotoxicity in the NF2 knockout cells ([5]; bortezomib 1 nM, 12 hrs): −28.42%
Average % Cytotoxicity in the NF2 knockout cells ([5]; bortezomib 1 nM, 18 hrs): −25.10%
Average % Cytotoxicity in the NF2 knockout cells ([5]; bortezomib 1 nM, 24 hrs): −66.58%
Average % Cytotoxicity in the NF2 knockout cells ([5]; bortezomib 3 nM, 6 hrs): −0.78%
Average % Cytotoxicity in the NF2 knockout cells ([5]; bortezomib 3 nM, 12 hrs): −24.79%
Average % Cytotoxicity in the NF2 knockout cells ([5]; bortezomib 3 nM, 18 hrs): −19.23%
Average % Cytotoxicity in the NF2 knockout cells ([5]; bortezomib 3 nM, 24 hrs): −68.56%
Average % Cytotoxicity in the NF2 knockout cells ([5]; bortezomib 10 nM, 6 hrs): 8.10%
Average % Cytotoxicity in the NF2 knockout cells ([5]; bortezomib 10 nM, 12 hrs): −11.84%
Average % Cytotoxicity in the NF2 knockout cells ([5]; bortezomib 10 nM, 18 hrs): 14.52%
Average % Cytotoxicity in the NF2 knockout cells ([5]; bortezomib 10 nM, 24 hrs): 29.86%
Average % Cytotoxicity in the NF2 knockout cells ([5]; bortezomib 30 nM, 6 hrs): 14.05%
Average % Cytotoxicity in the NF2 knockout cells ([5]; bortezomib 30 nM, 12 hrs): 17.18%
Average % Cytotoxicity in the NF2 knockout cells ([5]; bortezomib 30 nM, 18 hrs): 35.71%
Average % Cytotoxicity in the NF2 knockout cells ([5]; bortezomib 30 nM, 24 hrs): 37.83%
Average % Cytotoxicity in the NF2 knockout cells ([5]; bortezomib 60 nM, 6 hrs): 16.44%
Average % Cytotoxicity in the NF2 knockout cells ([5]; bortezomib 60 nM, 12 hrs): 16.07%
Average % Cytotoxicity in the NF2 knockout cells ([5]; bortezomib 60 nM, 18 hrs): 38.70%
Average % Cytotoxicity in the NF2 knockout cells ([5]; bortezomib 60 nM, 24 hrs): 43.98%
Average % Cytotoxicity in the NF2 knockout cells ([5]; bortezomib 100 nM, 6 hrs): 10.89%
Average % Cytotoxicity in the NF2 knockout cells ([5]; bortezomib 100 nM, 12 hrs): 15.71%
Average % Cytotoxicity in the NF2 knockout cells ([5]; bortezomib 100 nM, 18 hrs): 39.72%
Average % Cytotoxicity in the NF2 knockout cells ([5]; bortezomib 100 nM, 24 hrs): 45.16%
toxicity in the NF2 knockout cell line (in words) ([5]; higher concentration (>30 nM), 18 hrs and 24 hrs): slight toxicity was observed
toxicity in the wild type haploid (HAP1) cell line (in words) ([6]; 6 hrs): did not show any significant toxicity
toxicity in the wild type haploid (HAP1) cell line (in words) ([6]; higher concentration (>30 nM), 12, 18 & 24 hrs): toxicity was observed
